From publication PMC10643210, “Expanding structural diversity of 5′-aminouridine moiety of sansanmycin via mutational biosynthesis” (Frontiers in Bioengineering and Biotechnology, 2023) come the findings set out here.

Converted amounts (≈) assume the structure as drawn. A value given as a limit tells only on which side of the number the result lay.

The subject of one test is M. tuberculosis M9483. The settings on record: clinical multidrug-resistant isolate; for MIC M. tuberculosis M9483: Alamar blue, 7H9 broth, triplicate wells. (In general: The colour change of resazurin is a common sign of viable cells or microbes.)
Another test relates to M. tuberculosis M6600. The settings on record: clinical multidrug-resistant isolate; for MIC M. tuberculosis M6600: Alamar blue, 7H9 broth, triplicate wells.
The next test concerns M. tuberculosis M3551. The settings on record: clinical multidrug-resistant isolate; for MIC M. tuberculosis M3551: Alamar blue, 7H9 broth, triplicate wells.

With `CSCC[C@H](NC(=O)N[C@@H](Cc1c[nH]c2ccccc12)C(=O)O)C(=O)N[C@H](C(=O)NC[C@H]1O[C@@H](n2ccc(=O)[nH]c2=O)C[C@@H]1O)[C@H](C)N(C)C(=O)[C@@H](N)Cc1cccc(O)c1` [SS-KK-1], in the test with M. tuberculosis M9483, the “MIC M. tuberculosis M9483” value is >64 µg/mL. In addition, the “MIC M. tuberculosis M6600” value with M. tuberculosis M6600 is >64 µg/mL. In addition, the “MIC M. tuberculosis M3551” value in the test on M. tuberculosis M3551 is >64 µg/mL.
With `CSCC[C@H](NC(=O)N[C@@H](Cc1c[nH]c2ccccc12)C(=O)O)C(=O)N[C@H](C(=O)NC[C@H]1O[C@@H](n2ccc(=O)[nH]c2=O)C[C@@H]1O)[C@H](C)N(C)C(=O)[C@@H](N)Cc1ccc(O)cc1` [SS-KK-2], the “MIC M. tuberculosis M9483” value against M. tuberculosis M9483 is 32 µg/mL (≈ 37 µM). Moreover, in the test on M. tuberculosis M6600, the “MIC M. tuberculosis M6600” value was 64 µg/mL (≈ 73.9 µM). For the same molecule, the “MIC M. tuberculosis M3551” value in the test on M. tuberculosis M3551 was found to be 64 µg/mL (≈ 73.9 µM).
`CC(=O)NC[C@H]1CN(c2ccc(N3CCOCC3)c(F)c2)C(=O)O1` [LZD, linezolid]: the “M. tuberculosis M9483, resistant/sensitive class of control drugs” value in the test with M. tuberculosis M9483 is given as “S (sensitive to LZD, at 2.0 μg/mL)”. Also, the “M. tuberculosis M6600, resistant/sensitive class of control drugs” value in the test on M. tuberculosis M6600 is “S (sensitive to LZD, at 2.0 μg/mL)”. In addition, the “M. tuberculosis M3551, resistant/sensitive class of control drugs” value in the test with M. tuberculosis M3551 is on record as “S (sensitive to LZD, at 2.0 μg/mL)”.
Take `CO[C@H]1/C=C/O[C@@]2(C)Oc3c(C)c(O)c4c(O)c(c(/C=N/N5CCN(C)CC5)c(O)c4c3C2=O)NC(=O)/C(C)=C\C=C\[C@H](C)[C@H](O)[C@@H](C)[C@@H](O)[C@@H](C)[C@H](OC(C)=O)[C@@H]1C` [RIF, rifampicin]: the “M. tuberculosis M9483, resistant/sensitive class of control drugs” value with M. tuberculosis M9483 is “R”. Besides, the “M. tuberculosis M6600, resistant/sensitive class of control drugs” value in the test on M. tuberculosis M6600 is reported as “R”. In addition, the “M. tuberculosis M3551, resistant/sensitive class of control drugs” value in the test on M. tuberculosis M3551 is reported as “R”.
For the molecule `CSCC[C@H](NC(=O)N[C@@H](Cc1c[nH]c2ccccc12)C(=O)O)C(=O)N[C@H](C(=O)N/C=C1/C[C@@H](O)[C@H](n2ccc(=O)[nH]c2=O)O1)[C@H](C)N(C)C(=O)[C@@H](N)Cc1cccc(O)c1` [SS-A, sansanmycin A], in the test on M. tuberculosis M9483, the “MIC M. tuberculosis M9483” value amounted to 16 µg/mL (≈ 18.5 µM). Moreover, the “MIC M. tuberculosis M6600” value against M. tuberculosis M6600 came out at 16 µg/mL (≈ 18.5 µM). Also, in the test on M. tuberculosis M3551, the “MIC M. tuberculosis M3551” value was found to be 16 µg/mL (≈ 18.5 µM).
For the molecule `NNC(=O)c1ccncc1` [INH, isoniazid], the “M. tuberculosis M9483, resistant/sensitive class of control drugs” value in the test on M. tuberculosis M9483 is “R”. The “M. tuberculosis M6600, resistant/sensitive class of control drugs” value in the test on M. tuberculosis M6600 is on record as “R”. In the test with M. tuberculosis M3551, the “M. tuberculosis M3551, resistant/sensitive class of control drugs” value is “R”.
